Calls of active or inactive are those of the source. The calls are words filed in the database; no cut-off is given here.
Test system: Moloney murine leukemia virus
Assay: Inhibition of Moloney murine leukemia virus reverse transcriptase assessed as [3H]-dTMP incorporation after 30 to 120 mins

| SMILES | inhibition | logI50 |
| --- | --- | --- |
| CN1C(=O)[C@@]23SS[C@]1(C)C(=O)N2c1ccccc1C3(C)C | Active | – |
| CN1C(=O)[C@@]23SSC[C@@H]4OC(C)(C)O[C@H]4CSS[C@]1(C)C(=O)N2c1ccccc1C3(C)C | – | 0.796 |
| CN1C(=O)[C@]23SS[C@@]1(C)C(=O)N2c1ccccc1C3(C)C | Active | – |
| CN1C(=O)[C@]23SSC[C@@H]4OC(C)(C)O[C@H]4CSS[C@@]1(C)C(=O)N2c1ccccc1C3(C)C | – | 0.796 |

Source: ChEMBL document CHEMBL3272215, “Gliotoxin analogues as inhibitors of reverse transcriptase. 2. Resolution and X-ray crystal structure determination” (J Med Chem, 1978)
